Assay results from patent publication US20170266089A1, “USE OF LIPOPHILIC SALICYLIC ACID DERIVATIVES” (L'OREAL, priority 2014, published 2017).

How the values were obtained:
[1] = test system: Transglutaminase 1 (TGM1) transcripts; assay: Expression of TGM1 transcripts in keratinocytes (RT-qPCR); type: cell-based; settings: human epidermic keratinocytes, 24 hours, compound at 15 μm; for TGM1 transcript expression, fold change (fc) compared to control: normalized to RPL13A and GAPDH, N=3
Method: (§1) The influence of the compounds (A′) and (F), in particular obtained according to the process indicated above, on the renewal of the epidermis and on the barrier effect of the skin was evaluated in vitro by measuring the expression of TGM1 and TGM3 transcripts in keratinocytes.
(§2) Human epidermic keratinocytes were incubated for 24 hours in the presence or not (control) of compound (A′) or (F). At the end of the incubation, total RNAs were extracted and quantified. The expression of TGM1 and TGM3 transcripts was then measured using a two-step RT-qPCR method with a LightCycler® device according to the technique of incorporation of SYBR®Green (Qiagen). The expression of these transcripts was normalized with the expression of two housekeeping genes, RPL13A and GAPDH. The experiments were reproduced 3 times (N=3).
(§3) The results are given in Table (VI) below, fold change (fc) compared to control.

[2] = test system: Transglutaminase 3 (TGM3) transcripts; assay: Expression of TGM3 transcripts in keratinocytes (RT-qPCR); type: cell-based; settings: human epidermic keratinocytes, 24 hours, compound at 15 μm; for TGM3 transcript expression, fold change (fc) compared to control: normalized to RPL13A and GAPDH, N=3
Method: as §1, §2, §3

laminin-5 = assay: Ex vivo immunolabelling of laminin-5 in skin explants; parameters: species or system human; settings: topical 2 mg per explant, compound (F) 5% in water, LHA 5% in ethanol, symbols proportional
Method: (§4) The anti-ageing effect of the compound (F), in particular obtained according to the process indicated above, at 5% in water, was evaluated ex vivo by immunolabelling of the proteins collagen III, membrane transglutaminase (MTG), filaggrin and laminin-5, in comparison with LHA (lipohydroxy acid, 2-hydroxy-5-octanoylbenzoic acid) at 5% in ethanol.
(§5) 111 explants with a diameter of approximately 10 mm were prepared from abdominal plastic surgery on a person. These explants were kept alive.
(§6) On day […], the explants were placed on a grid in 2 ml of culture medium. […]
(§7) At D0, D6 and D11, the explants were sampled from the culture medium and cut in two. […] The labellings were evaluated by a microscopic examination. […]
(§8) The microscopic observations were carried out in optical microscopy and fluorescence microscopy, using a Leica microscope of Orthoplan or DMLB type. […]
Immunolabelling of Laminin-5 The labelling of laminin-5 was carried out on frozen sections with a monoclonal antibody, clone P3E4 (Santa Cruz sc-13587), at 1/300th, for 30 minutes at ambient temperature with a biotin/streptavidin amplifying system, visualized in FITC (Caltag sa1001). […] The labelling was evaluated by a microscopic examination. […]
The results obtained with the compound (F) and LHA are assessed, at equivalent date, by comparison with the results obtained in the absence of treatment (control test). […]

[3] = test system: membrane transglutaminase (MTG); assay: Ex vivo immunolabelling of membrane transglutaminase (MTG) in skin explants; parameters: species or system human; settings: topical 2 mg per explant, compound (F) 5% in water, LHA 5% in ethanol, symbols proportional
Method: as §4, §5, §6, §7, §8
Membrane transglutaminase was labelled on frozen sections with a monoclonal antibody, clone B.C1 (Harbor Bio Product ref. 5003), at 1/100th, for 2 h at ambient temperature with a Vectastain RTU Universal, Vector, avidin/biotin amplifying system and visualized in FITC. […] The labelling was evaluated by a microscopic examination. […]
The results obtained with the compound (F) and […] are assessed, at equivalent date, by comparison with the results obtained in the absence of treatment (control test). […]

SMILES	Stimulation of the expression of TGM1 transcripts (class in words) [1]	TGM1 transcript expression, fold change (fc) compared to control [1]	Stimulation of the expression of TGM3 transcripts (class in words) [2]	TGM3 transcript expression, fold change (fc) compared to control [2]	Laminin-5 expression level, difference in comparison with the control at D11 (laminin-5)	MTG expression level, difference in comparison with the control at D6 [3]
CCCCCCCCCCCCCCCc1cccc(O)c1C(=O)O [Compound (A′), 6-peritadecylsalicylic acid]	strong stimulation	6.0 fc	strong stimulation	20 fc		
CCCCCCCCCCCCCCCc1cccc(O)c1C(=O)O [Compound (F)]	average stimulation	1.7 fc	good stimulation	3.0 fc	No variation	No variation
CCCCCCCC(=O)c1ccc(O)c(C(=O)O)c1 [LHA, 2-hydroxy-5-octanoylbenzoic acid, reference compound]					No variation	
